Results on six molecules are retold here after patent US6288085A, “Piperidine derivatives for treating psychoses” (Akzo Nobel N.V., priority 1996, dated 2001).

For data set [1], the system named is catalepsy. Nature of the data set: Catalepsy in rats (CATR). In kind it is in vivo, Male Wistar rats. The procedure: (§1) Catalepsy in rats: Male Wistar rats (100-125 g, Olac UK) were used for catalepsy experiments. Catalepsy was assessed as described previously (Broekkamp et al, Naunyn Schmiedeberg's Arch. Pharmacol. 338, 191 1988). Briefly, rats were tested in 6 different observation trials in which the animals were placed in abnormal postures and scored positively with one point for maintaining the imposed posture for 10s. The imposed postures were; vertical clinging to a grid, upright standing with a high support for the front paws, extension of hindlegs, placement on back, placement of spatula in the mouth and rotation in a wire mesh cylinder.
(§2) Theoretically a maximum score of 6 can be reached. Catalepsy was assessed at 60 and 120 minutes after drug administration. The data were evaluated by 2 way ANOVAR followed by a Newman Kools post hoc test and ED50 values calculated (Table II).

Data set [2] in a line: Catalepsy in rats (CATR). In kind it is in vivo, Male Wistar rats. The conditions noted are these: rat; catalepsy assessed at 60 and 120 minutes after drug administration. The procedure:
as §1, §2

Data set [3] relates to climbing behaviour in mice, induced by apomorphine (dopamine receptors). In words: Apomorphine climbing test (ACT) in mice. In kind it is in vivo. The conditions noted are these: Mus musculus, 0.75 mg/kg apomorphine HCl sc after 30 min, scored at 10 and 20 min. The source says:
Apomorphine Climbing Test In Mice
The ability of dopamine receptor antagonists to inhibit the behavioural effects in rodents caused by dopamine agonists such as apomorphine is a well established criterion for predicting the antipsychotic efficacy of these drugs in man (see e.g. W. C. Bowman and M. J. Rand, Textbook of Pharmacology, 2nd ed., 1980, 15, 6). A particularly relevant test in this respect is the apomorphine climbing test (ACT) which measures the ability of a dopamine antagonist to inhibit the climbing behaviour in mice, induced by the subcutaneous or oral administration of apomorphine. Activity in this test, following systemic and oral administration, has been widely used as a predictor of antipsychotic activity i.e. anti-schizophrenic activity (see e.g. J. T Strupczewski et.al., J. Med. Chem., 1995, 38, 1119). Mice treated with apomorphine HCl tend to adopt a vertical position along the wall of a wire mesh cylinder, standing or climbing. This climbing behaviour is considered to be elicited by apomorphine-mediated stimulation of dopamine receptors. […] Test compounds which modulate this climbing behaviour may have anti-psychotic activity.
The various treatments are randomly distributed over the mice. Each experiment consists of 1+n treatment groups: 1 being a control group of 12 mice receiving apomorphine and vehicle subcutaneously or being a control group of 12 mice receiving apomorphine subcutaneously and vehicle orally; n being (usually 4) compound groups of 12 mice receiving apomorphine and test compound subcutaneously or being compound groups of 12 mice receiving apomorphine subcutaneously and test compound orally.
Experiments are performed in 3 runs of 20 mice each. The mice are marked and weighed, test compound or vehicle is administered subcutaneously and the mice are placed in small Macrolon cages of 17×11×13 cm, 5 mice per cage, or test compound or vehicle is administered orally and the mice are placed in Macrolon cages of 29×11×13 cm, 5 mice per cage. After 30 min 0.75 mg/kg apomorphine HCl is administered subcutaneously in mice treated subcutaneously with vehicle or test compound, or 0.75 mg/kg apomorphine HCl is administered subcutaneously in mice treated orally with vehicle or test compound, and the mice are placed individually in a wire mesh cylinder (diameter 12 cm, height 14 cm).
At 10 min after the treatment with apomorphine the climbing behaviour of each mouse is observed and expressed as a score, according to the following grade: […]
4 paws on the floor score 0
1 or 2 paws holding the wall score 1
3 or 4 paws holding the wall score 2
At 20 min after the treatment with apomorphine the climbing behaviour is observed and scored again. For each treatment group the mean score per mouse is determined. The score of the control group should be at least 1.0; if not, the trial is rejected. The final result per group is expressed as the percentage over the control group.
The results of this test for the present test compounds are denoted in Table I (subcutaneous and oral administration of test compound).

The mark [4] stands for this setting: sc administration of test compound.
[5] abbreviates: po administration of test compound.

Molecules are shown by their SMILES.

A word on the ED50: it is the dose at which the effect has come halfway, by size or by number of responders. Regarding `CN(C)CCCN1c2ccccc2Sc2ccc(Cl)cc21` [chlorpromazine, reference compound], the “CATR score at max dose” value in data set [1] (rat, in vivo, 14 mg/kg) was determined as 5.3. For the same molecule, it took a dose of 4.8 mg/kg to reach the 50% effect level in data set [2] (ED50).
In data set [3] (setting [4]), `CN1CCC(=C(c2ccccc2)c2cccs2)CC1` [Compound B, 1-methyl-4-(2-thienyl)-phenyl-methylenepiperidine, reference compound] showed an ED50 of 22 mg/kg.
With `CN1CCC(=C(c2ccc(F)cc2)c2cc(Cl)cs2)CC1` [Example 2, 1-methyl-4-[(4-chloro-2-thienyl)-(4-fluorophenyl)]-methylene-piperidine], the “CATR score at max dose” value in data set [1] (at 56 mg/kg, theoretical maximum score 6, 60 and 120 minutes) came out at 0.2. In addition, the ED50 was more than 50 mg/kg in data set [2], 5 mg/kg in data set [3] (setting [5]) and 0.6 mg/kg in data set [3] (setting [4]).
In the case of `CN1CCC(=C(c2ccccc2)c2ccc(Cl)s2)CC1` [Compound C, 1-methyl-4-[(-5-chloro-2-thienyl)-phenyl]methylenepiperidine, reference compound], it took a dose of 22 mg/kg to reach the 50% effect level in data set [3] (setting [4]) (ED50).
In the case of `CN1CCC(=C(c2ccc(F)cc2)c2cccs2)CC1` [Compound A, 1-methyl-4-[(2-thienyl)-(4-fluorophenyl)]methylenepiperidine, reference compound], the figures for the 50% effective dose (ED50) in data set [3] (setting [5]) and in data set [3] (setting [4]) were 100 mg/kg and 2.8 mg/kg, respectively.
Consider `Cc1csc(C(=C2CCN(C)CC2)c2ccc(F)cc2)c1` [Example 3, 1-methyl-4-[(4-methyl-2-thienyl)-(4-fluoropheny)]methylene-piperidine], for which the “CATR score at max dose” value in data set [1] (at 75 mg/kg, theoretical maximum score 6, 60 and 120 minutes) came to 0.2. The median effective dose (ED50) in data set [2] was more than 75 mg/kg; in data set [3] (setting [5]), 8.6 mg/kg; in data set [3] (setting [4]) it was 1.5 mg/kg.
